Assay results as given in patent US8946173B2, “Cancer cell death inducing agent having effects of potentiating anticancer drug against anticancer-drug-resistant cancer” (Momotaro-Gene Inc., priority 2007, dated 2015).

Tested on: MCF7/ADR cells
Assay: Cell survival rate assay with doxorubicin
Type: cell-based, human
Details: no treatment group (no vector)
Method: Cells were seeded in a 96-well flat bottom microplate at 1000 cells per well. After 24 hours of incubation, cells were treated with Ad-LacZ and Ad-REIC at 100 MOI in serum free medium for 2 hours, followed by exchange with fresh complete medium. After 48 hours, floating dead cells were removed by medium exchange. Adhering cells were cultured with doxorubicin at various concentrations for 72 hours. At the end of incubation, cell survival rates were measured using CellTiter96 (trademark) Aqueous One Solution Cell Proliferation Assay (Promega Corp.).

SMILES: COc1cccc2c1C(=O)c1c(O)c3c(c(O)c1C2=O)C[C@@](O)(C(=O)CO)C[C@@H]3O[C@H]1C[C@H](N)[C@H](O)[C@H](C)O1 [doxorubicin]
- cell survival % (10 μM doxorubicin): 88.1%
- cell survival rates (25 μM doxorubicin): 45.9%
